According to patent US20060069132A1, “Azolecarboxamide herbicides” (priority 2004, published 2006):

Tests used:
barnyardgrass [1] = assay: Test B pre-/postemergence herbicide test; format: in vivo, Echinochloa crus-galli; details: for Barnyardgrass plant response rating: scale 0 (no effect) to 100 (complete control)
Outline: (§1)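 Species tested were Echinochloa crus-galli, Ipomoea coccinea, Xanthium strumarium and Oryza sativa, treated both before emergence and at the 1- to 4-leaf stage; rice and barnyardgrass were also tested under flooding at 2 leaves. Greenhouse incubation lasted 13–15 days before visual 0–100 scoring.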

Surinam grass = assay: Test B pre-/postemergence herbicide test; format: in vivo, Urochloa decumbens; details: for Surinam Grass plant response rating: scale 0 (no effect) to 100 (complete control)
Outline: (§2)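 Plants compared with untreated controls 13–15 days post-treatment and given a visual 0–100 injury score. Applications: preemergence to seeds; postemergence at 1- to 4-leaf (2–18 cm); paddy species flooded, 2-leaf stage. Vehicle non-phytotoxic, surfactant included.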

cocklebur = assay: Test B pre-/postemergence herbicide test; format: in vivo, Xanthium strumarium; details: for Cocklebur plant response rating: scale 0 (no effect) to 100 (complete control)
Outline: as §1

corn = assay: Test B pre-/postemergence herbicide test; format: in vivo, Zea mays; details: for Corn plant response rating: scale 0 (no effect) to 100 (complete control)
Outline: as §2

large crabgrass = assay: Test B pre-/postemergence herbicide test; format: in vivo, Digitaria sanguinalis; details: for Crabgrass, Large plant response rating: scale 0 (no effect) to 100 (complete control)
Outline: as §2

giant foxtail = assay: Test B pre-/postemergence herbicide test; format: in vivo, Setaria faberi; details: for Foxtail, Giant plant response rating: scale 0 (no effect) to 100 (complete control)
Outline: as §2

lambsquarters = assay: Test B pre-/postemergence herbicide test; format: in vivo, Chenopodium album; details: for Lambsquarters plant response rating: scale 0 (no effect) to 100 (complete control)
Outline: as §2

morningglory = assay: Test B pre-/postemergence herbicide test; format: in vivo, Ipomoea coccinea; details: for Morningglory plant response rating: scale 0 (no effect) to 100 (complete control)
Outline: as §1

pigweed = assay: Test B pre-/postemergence herbicide test; format: in vivo, Amaranthus retroflexus; details: for Pigweed plant response rating: scale 0 (no effect) to 100 (complete control)
Outline: as §2

velvetleaf = assay: Test B pre-/postemergence herbicide test; format: in vivo, Abutilon theophrasti; details: for Velvetleaf plant response rating: scale 0 (no effect) to 100 (complete control)
Outline: as §2

blackgrass = assay: Test B postemergence herbicide test; format: in vivo, Alopecurus myosuroides; details: scale 0 (no effect) to 100 (complete control)
Outline: (§3)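 Plants grow to 1- to 4-leaf stage (2–18 cm) for postemergence spraying, or to 2-leaf stage for the paddy test. Formulated compound is applied. Greenhouse holding lasts 13–15 days. Response is scored visually relative to controls, 0 no effect to 100 complete control; a dash means no result.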

wheat = assay: Test B postemergence herbicide test; format: in vivo, Triticum aestivum; parameters: key to Wheat plant response rating: 0 = no effect, 100 = complete control
Outline: as §3

wild oat = assay: Test B postemergence herbicide test; format: in vivo, Avena fatua; details: scale 0 (no effect) to 100 (complete control)
Outline: as §3

rice = assay: Test B flooded paddy test; format: in vivo, Oryza sativa; details: 1000 g ai/ha, scale 0 to 100 (0 no effect, 100 complete control)
Outline: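 Formulated test chemicals went onto postemergence plants measuring 2 to 18 cm, at one to four leaves. For the paddy assay, species had reached two leaves. Scoring took place 13–15 days later by eye, relative to untreated plants, using 0 for no effect up to 100 for full control.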

[2] = tested on: small flower umbrella sedge; assay: Test B flooded paddy test; format: in vivo, Cyperus difformis; details: 1000 g ai/ha, scale 0 to 100 (0 no effect, 100 complete control)
Outline: as §3

ducksalad = assay: Test B flooded paddy test; format: in vivo, Heteranthera limosa; details: 1000 g ai/ha, scale 0 to 100 (0 no effect, 100 complete control)
Outline: as §3

barnyardgrass [3] = assay: Test B flooded paddy test; format: in vivo, Echinochloa crus-galli; details: 1000 g ai/ha, scale 0 to 100 (0 no effect, 100 complete control)
Outline: as §3

[4] = 125 g ai/ha, 0 is no effect, 100 is complete control, preemergence
[5] = 125 g ai/ha, visual rating, postemergence

Cc1nn(C(C)C)nc1C(=O)Nc1cc(C(=O)N(C)C)ccc1F [Compound 400]
Plant response rating (0 to 100 scale), Barnyardgrass (barnyardgrass [1]; [4]): 0
Barnyardgrass plant response rating (barnyardgrass [1]; [5]): 0
Barnyardgrass plant response rating (barnyardgrass [1]; Postemergence, 500 g ai/ha): 0
Plant response rating (0 to 100 scale), Surinam Grass (Surinam grass; [4]): 0
Surinam Grass plant response rating (Surinam grass; [5]): 0
Surinam Grass plant response rating (Surinam grass; Postemergence, 500 g ai/ha): 0
Plant response rating (0 to 100 scale), Cocklebur (cocklebur; [4]): 0
Cocklebur plant response rating (cocklebur; [5]): 0
Cocklebur plant response rating (cocklebur; Postemergence, 500 g ai/ha): 0
Plant response rating (0 to 100 scale), Corn (corn; [4]): 0
Corn plant response rating (corn; [5]): 0
Corn plant response rating (corn; Postemergence, 500 g ai/ha): 0
Plant response rating (0 to 100 scale), Crabgrass, Large (large crabgrass; [4]): 0
Crabgrass, Large plant response rating (large crabgrass; [5]): 0
Crabgrass, Large plant response rating (large crabgrass; Postemergence, 500 g ai/ha): 0
Plant response rating (0 to 100 scale), Foxtail, Giant (giant foxtail; [4]): 0
Foxtail, Giant plant response rating (giant foxtail; [5]): 0
Foxtail, Giant plant response rating (giant foxtail; Postemergence, 500 g ai/ha): 0
Plant response rating (0 to 100 scale), Lambsquarters (lambsquarters; [4]): 0
Lambsquarters plant response rating (lambsquarters; [5]): 0
Lambsquarters plant response rating (lambsquarters; Postemergence, 500 g ai/ha): 10
Plant response rating (0 to 100 scale), Morningglory (morningglory; [4]): 0
Morningglory plant response rating (morningglory; [5]): 0
Morningglory plant response rating (morningglory; Postemergence, 500 g ai/ha): 0
Plant response rating (0 to 100 scale), Pigweed (pigweed; [4]): 0
Pigweed plant response rating (pigweed; [5]): 0
Pigweed plant response rating (pigweed; Postemergence, 500 g ai/ha): 20
Plant response rating (0 to 100 scale), Velvetleaf (velvetleaf; [4]): 0
Velvetleaf plant response rating (velvetleaf; [5]): 0
Velvetleaf plant response rating (velvetleaf; Postemergence, 500 g ai/ha): 30
Blackgrass plant response rating (blackgrass; [5]): 0
Blackgrass plant response rating (blackgrass; Postemergence, 500 g ai/ha): 0
Wheat plant response rating (wheat; 125 g ai/ha, visual rating, scale 0 (no effect) to 100 (complete control), postemergence): 0
Wheat plant response rating (wheat; 500 g ai/ha, scale 0 to 100, 0 no effect, 100 complete control, preemergence): 0
Wheat plant response rating (wheat; Postemergence, 500 g ai/ha, scale 0 (no effect) to 100 (complete control)): 0
Oat, Wild plant response rating (wild oat; [5]): 0
Oat, Wild plant response rating (wild oat; Postemergence, 500 g ai/ha): 0
Rice plant response rating (rice): 0
Sedge, Umbrella plant response rating [2]: 80
Ducksalad plant response rating (ducksalad): 20
Barnyardgrass plant response rating (barnyardgrass [3]): 0
